Data as given in patent EP3138849B1, “SALTS OF PHOSPHORUS-CONTAINING AMINOGLYCOSIDE ANTIBIOTICS” (Mathys AG Bettlach, priority 2015, dated 2017).

Assays:
[1] = Release of aminoglycosides from coatings on pure titanium test discs; assay type: physicochemical; conditions: for Freisetzungsrate von Gentamicin-Base (time course) / initiale Freisetzung von Gentamicin-Base: coated titanium disc, 100 µg Gentamicin-Base per cm^2, 1 ml isotonic saline, 37 °C; for Freisetzungsrate von Gentamicin-Base (time course): 21 d, sampling at 1, 2, 3, 4, 7, 14, 21 days; for Freisetzungsrate von Gentamicin-Base (time course) / Wirkstofffreisetzung von beschichteten Titanoberflächen: Fig. 1; for initiale Freisetzung von Gentamicin-Base: Fig. 1, start of release; for Wirkstofffreisetzung von beschichteten Titanoberflächen: compared with Gentamicin-Palmitat
Excerpt: Zur Untersuchung der Freisetzung von Aminoglykosiden aus Beschichtungen werden runde Probekörper aus Reintitan (Grade 4) mit einem Durchmesser von 11 mm verwendet. Für die Beschichtungen werden folgende Aminoglycosid-Verbindungen verwendet: Gentamicin-Palmitat, Gentamicin-Dodecylphosphat und Gentamicin-Octadecylphosphonsäure.
Umsetzung von Gentamicin mit Palmitat im molaren Verhältnis 1:4. Umsetzung von Gentamicin mit Dodecylphosphat bzw. Octadecylphosphonat im molaren Verhältnis 1:3.
Lösung von Gentamicin-Palmitat, Gentamicin-Dodecylphosphat und Gentamicin-Octadecylphosphonsäure in Ethanol (Konzentration 15-25 mg/ml). Auf die Oberfläche wurden unter sterilen Bedingungen 100 µg Gentamicin-Base pro cm^2 aufgetragen. Trocknen der Beschichtung (4 h bei Raumtemperatur).
Inkubation der beschichteten Probekörper in 1 ml isotonischer Kochsalzlösung über eine Zeitdauer von 21 d bei 37 °C. Zu festgelegten Zeitpunkten (1, 2, 3, 4, 7, 14 und 21 Tagen) werden die Überstände abgenommen und die Probekörper in neuer isotonischer Kochsalzlösung weiter inkubiert.
Der Gehalt an Gentamicin wurde im Hemmhoftest mit Bacillus subtilis (ATCC 6633) bestimmt.
Die gemittelte Menge der freigesetzten Gentamicin-Base aus diesen Gentamicin-Salzen ist in Fig. 1 dargestellt.

[2] = system: MC 3T3-E1-Zellen; assay type: cell-based, Maus
Experimental: Für die Untersuchungen der Cytokompatibilität der aminoglykosidhaltigen Beschichtungen werden runde, sandgestrahlte Probekörper aus Reintitan mit einem Durchmesser von 11 mm mit Gentamicin-Palmitat, Gentamicin-Dodecylphosphat bzw. Gentamicin-Octadecylphosphonsäure mit einem Gehalt von 100 µg Gentamicn-Base pro cm^2, wie in Beispiel 30 beschrieben, beschichtet.
Die Probekörper werden nach dem Trocknen der Beschichtung in Mikrotiterplatten überführt und mit einer definierten Anzahl von MC 3T3-E1-Zellen (Maus-Präosteoblasten-Zelllinie, 25.000 Zellen/ml) besiedelt.
Nach einer Inkubationszeit von 4 Tagen erfolgt die Vitalfärbung mit einer Mischung aus Fluoresceindiacetat (FDA) und GelRed®.
Fig. 2 zeigt die Vitalitätsbestimmung der Zellen mittels Auflicht-Fluoreszenzmikroskopie: Gentamicin-Palmitat (A), Gentamicin-Dodecylphosphat (B), Gentamicin-Octadecylphosphat (C).

Substance	Freisetzungsrate von Gentamicin-Base (time course) [1]	initiale Freisetzung von Gentamicin-Base [1]	Wirkstofffreisetzung von beschichteten Titanoberflächen [1]	Zytotoxizität [2]	Zellzahlen [2]
Gentamicin-Dodecylphosphat	bleibt bis Tag 7 konstant und fällt dann nur schwach ab	niedrigere Freisetzungsrate von Gentamicin-Base als das Gentamicin-Palmitat	retardierende Wirkstofffreisetzung	signifikant geringere Zytotoxizität	
Gentamicin-Octadecylphosphonsäure	bleibt von Tag 2 bis Tag 14 konstant	niedrigste initiale Freisetzung von Gentamicin-Base	retardierende Wirkstofffreisetzung		
Gentamicin-Palmitat [reference compound]	bis zum vierten Freisetzungstag stark abnimmt	initial hohen Freisetzung der Gentamicin-Base (Burst release)			niedrigsten Zellzahlen
